{"source": "ChEMBL document CHEMBL3112450", "about": "“Synthesis and in vitro antitumor evaluation of primary amine substituted quinazoline linked benzimidazole” (Bioorg Med Chem Lett, 2014)", "format_in_all_cases": "functional", "key": {"[1]": {"system": "MCF7", "assay": "Cytotoxicity against human MCF7 cells assessed as cell growth at 10^-4 M after 48 hrs by SRB assay", "conditions": "MCF7, 48 h, read-out: Activity"}, "[2]": {"system": "Malme-3M", "assay": "Cytotoxicity against human MALME-3M cells assessed as cell growth at 10^-7 M after 48 hrs by SRB assay", "conditions": "read-out: Activity"}, "[3]": {"system": "SNB-19", "assay": "Cytotoxicity against human SNB19 cells assessed as cell growth at 10^-7 M after 48 hrs by SRB assay", "conditions": "SNB-19, 48 h, read-out: Activity"}, "[4]": {"system": "HCT-15", "assay": "Cytotoxicity against human HCT15 cells assessed as cell growth at 10^-7 M after 48 hrs by SRB assay", "conditions": "HCT-15, 48 h, read-out: Activity"}, "[5]": {"system": "COLO 205", "assay": "Cytotoxicity against human COLO205 cells assessed as cell growth at 10^-7 M after 48 hrs by SRB assay", "conditions": "COLO 205, 48 h, read-out: Activity"}, "[6]": {"system": "NCI-H460", "assay": "Cytotoxicity against human NCI-H460 cells assessed as cell growth at 10^-7 M after 48 hrs by SRB assay", "conditions": "NCI-H460, 48 h, read-out: Activity"}, "[7]": {"system": "NCI-H23", "assay": "Cytotoxicity against human NCI-H23 cells assessed as cell growth at 10^-7 M after 48 hrs by SRB assay", "conditions": "NCI-H23, 48 h, read-out: Activity"}, "[8]": {"assay": "Cytotoxicity against human UO31 cells assessed as cell growth at 10^-8 M after 48 hrs by SRB assay", "conditions": "UO-31, 48 h, read-out: Activity"}, "[9]": {"system": "TK-10", "assay": "Cytotoxicity against human TK10 cells assessed as cell growth at 10^-8 M after 48 hrs by SRB assay", "conditions": "TK-10, 48 h, read-out: Activity"}, "[10]": {"system": "SK-OV-3", "assay": "Cytotoxicity against human SKOV3 cells assessed as cell growth at 10^-4 M after 48 hrs by SRB assay", "conditions": "SK-OV-3, 48 h, read-out: Activity"}, "[11]": {"system": "786-0", "assay": "Cytotoxicity against human 786-0 cells assessed as cell growth at 10^-4 M after 48 hrs by SRB assay", "conditions": "786-0, 48 h, read-out: Activity"}, "[12]": {"assay": "Cytotoxicity against human NCI-ADR-RES cells assessed as cell growth at 10^-4 M after 48 hrs by SRB assay", "conditions": "read-out: Activity"}, "[13]": {"system": "IGROV-1", "assay": "Cytotoxicity against human IGROV1 cells assessed as cell growth at 10^-4 M after 48 hrs by SRB assay", "conditions": "IGROV-1, 48 h, read-out: Activity"}, "[14]": {"system": "LOX IMVI", "assay": "Cytotoxicity against human LOXIMVI cells assessed as cell growth at 10^-4 M after 48 hrs by SRB assay", "conditions": "read-out: Activity"}, "[15]": {"system": "HT-29", "assay": "Cytotoxicity against human HT-29 cells assessed as cell growth at 10^-4 M after 48 hrs by SRB assay", "conditions": "HT-29, 48 h, read-out: Activity"}, "[16]": {"system": "HCT-15", "assay": "Cytotoxicity against human HCT15 cells assessed as cell growth at 10^-4 M after 48 hrs by SRB assay", "conditions": "HCT-15, 48 h, read-out: Activity"}, "[17]": {"system": "HCC 2998", "assay": "Cytotoxicity against human HCC2998 cells assessed as cell growth at 10^-4 M after 48 hrs by SRB assay", "conditions": "HCC 2998, 48 h, read-out: Activity"}, "[18]": {"system": "NCI-H226", "assay": "Cytotoxicity against human NCI-H226 cells assessed as cell growth at 10^-4 M after 48 hrs by SRB assay", "conditions": "NCI-H226, 48 h, read-out: Activity"}, "[19]": {"system": "RPMI-8226", "assay": "Cytotoxicity against human RPMI8226 cells assessed as cell growth at 10^-4 M after 48 hrs by SRB assay", "conditions": "RPMI-8226, 48 h, read-out: Activity"}, "[20]": {"system": "CAKI-1", "assay": "Cytotoxicity against human Caki1 cells assessed as cell growth at 10^-8 M after 48 hrs by SRB assay", "conditions": "CAKI-1, 48 h, read-out: Activity"}, "[21]": {"system": "SK-MEL-2", "assay": "Cytotoxicity against human SK-MEL-2 cells assessed as cell growth at 10^-8 M after 48 hrs by SRB assay", "conditions": "SK-MEL-2, 48 h, read-out: Activity"}, "[22]": {"system": "SW-620", "assay": "Cytotoxicity against human SW620 cells assessed as cell growth at 10^-8 M after 48 hrs by SRB assay", "conditions": "SW-620, 48 h, read-out: Activity"}, "[23]": {"system": "HCC 2998", "assay": "Cytotoxicity against human HCC2998 cells assessed as cell growth at 10^-8 M after 48 hrs by SRB assay", "conditions": "HCC 2998, 48 h, read-out: Activity"}, "[24]": {"system": "BT-549", "assay": "Cytotoxicity against human BT549 cells after 48 hrs by SRB assay", "conditions": "BT-549, 48 h"}, "[25]": {"system": "T47D", "assay": "Cytotoxicity against human T47D cells after 48 hrs by SRB assay"}, "[26]": {"assay": "Cytotoxicity against human NCI-ADR-RES cells after 48 hrs by SRB assay"}, "[27]": {"assay": "Cytotoxicity against human OVCAR5 cells after 48 hrs by SRB assay", "conditions": "OVCAR-5, 48 h"}, "[28]": {"system": "MDA-MB-435", "assay": "Cytotoxicity against human MDA-MB-435 cells after 48 hrs by SRB assay", "conditions": "MDA-MB-435, 48 h"}, "[29]": {"system": "LOX IMVI", "assay": "Cytotoxicity against human LOXIMVI cells after 48 hrs by SRB assay"}, "[30]": {"system": "SNB-19", "assay": "Cytotoxicity against human SNB19 cells after 48 hrs by SRB assay", "conditions": "SNB-19, 48 h"}, "[31]": {"system": "KM12", "assay": "Cytotoxicity against human KM12 cells after 48 hrs by SRB assay", "conditions": "KM12, 48 h"}, "[32]": {"system": "HCT-116", "assay": "Cytotoxicity against human HCT116 cells after 48 hrs by SRB assay", "conditions": "HCT-116, 48 h"}, "[33]": {"system": "NCI-H522", "assay": "Cytotoxicity against human NCI-H522 cells after 48 hrs by SRB assay", "conditions": "NCI-H522, 48 h"}, "[34]": {"system": "NCI-H460", "assay": "Cytotoxicity against human NCI-H460 cells after 48 hrs by SRB assay", "conditions": "NCI-H460, 48 h"}, "[35]": {"system": "MDA-MB-468", "assay": "Cytotoxicity against human MDA-MB-468 cells assessed as cell growth at 10^-6 M after 48 hrs by SRB assay", "conditions": "MDA-MB-468, 48 h, read-out: Activity"}, "[36]": {"system": "HCT-15", "assay": "Cytotoxicity against human HCT15 cells assessed as cell growth at 10^-6 M after 48 hrs by SRB assay", "conditions": "HCT-15, 48 h, read-out: Activity"}, "[37]": {"system": "HOP-62", "assay": "Cytotoxicity against human HOP62 cells assessed as cell growth at 10^-6 M after 48 hrs by SRB assay", "conditions": "HOP-62, 48 h, read-out: Activity"}, "[38]": {"assay": "Cytotoxicity against human Hs578T cells assessed as cell growth at 10^-7 M after 48 hrs by SRB assay", "conditions": "Hs-578T, read-out: Activity"}}}
{"compound": "C=CCn1c(C)nc2cc(Nc3nc(Nc4ccc5nc(C)n(CC=C)c5c4)c4ccccc4n3)ccc21", "values": [{"measurement": "growth at 100 µM", "setting": "[1]", "result": 3, "unit": "%"}, {"measurement": "growth at 0.1 µM", "setting": "[2]", "result": 97, "unit": "%"}, {"measurement": "growth at 0.1 µM", "setting": "[3]", "result": 88, "unit": "%"}, {"measurement": "growth at 0.1 µM", "setting": "[4]", "result": 96, "unit": "%"}, {"measurement": "growth at 0.1 µM", "setting": "[5]", "result": 101, "unit": "%"}, {"measurement": "growth at 0.1 µM", "setting": "[6]", "result": 103, "unit": "%"}, {"measurement": "growth at 0.1 µM", "setting": "[7]", "result": 93, "unit": "%"}, {"measurement": "growth at 0.01 µM", "setting": "[8]", "result": 85, "unit": "%"}, {"measurement": "growth at 0.01 µM", "setting": "[9]", "result": 96, "unit": "%"}, {"measurement": "growth at 100 µM", "setting": "[10]", "result": -29, "unit": "%"}, {"measurement": "growth at 100 µM", "setting": "[11]", "result": -21, "unit": "%"}, {"measurement": "growth at 100 µM", "setting": "[12]", "result": -24, "unit": "%"}, {"measurement": "growth at 100 µM", "setting": "[13]", "result": -43, "unit": "%"}, {"measurement": "growth at 100 µM", "setting": "[14]", "result": -71, "unit": "%"}, {"measurement": "growth at 100 µM", "setting": "[15]", "result": -50, "unit": "%"}, {"measurement": "growth at 100 µM", "setting": "[16]", "result": 2, "unit": "%"}, {"measurement": "growth at 100 µM", "setting": "[17]", "result": -88, "unit": "%"}, {"measurement": "growth at 100 µM", "setting": "[18]", "result": -12, "unit": "%"}, {"measurement": "growth at 100 µM", "setting": "[19]", "result": -20, "unit": "%"}, {"measurement": "growth at 0.01 µM", "setting": "[20]", "result": 94, "unit": "%"}, {"measurement": "growth at 0.01 µM", "setting": "[21]", "result": 96, "unit": "%"}, {"measurement": "growth at 0.01 µM", "setting": "[22]", "result": 97, "unit": "%"}, {"measurement": "growth at 0.01 µM", "setting": "[23]", "result": 99, "unit": "%"}, {"measurement": "GI50", "setting": "[24]", "result": 1680, "unit": "nM"}, {"measurement": "TGI", "setting": "[24]", "result": 3.1, "unit": "µM"}, {"measurement": "GI50", "setting": "[25]", "result": 280, "unit": "nM"}, {"measurement": "LC50", "setting": "[25]", "result": "> 100", "unit": "µM"}, {"measurement": "TGI", "setting": "[25]", "result": 909, "unit": "nM"}, {"measurement": "GI50", "setting": "[26]", "result": 1840, "unit": "nM"}, {"measurement": "LC50", "setting": "[26]", "result": "> 100", "unit": "µM"}, {"measurement": "TGI", "setting": "[26]", "result": 4.43, "unit": "µM"}, {"measurement": "GI50", "setting": "[27]", "result": 400, "unit": "nM"}, {"measurement": "TGI", "setting": "[27]", "result": 1490, "unit": "nM"}, {"measurement": "GI50", "setting": "[28]", "result": 532, "unit": "nM"}, {"measurement": "TGI", "setting": "[28]", "result": 1820, "unit": "nM"}, {"measurement": "GI50", "setting": "[29]", "result": 180, "unit": "nM"}, {"measurement": "LC50", "setting": "[29]", "result": 640, "unit": "nM"}, {"measurement": "TGI", "setting": "[29]", "result": 339, "unit": "nM"}, {"measurement": "GI50", "setting": "[30]", "result": 1080, "unit": "nM"}, {"measurement": "TGI", "setting": "[30]", "result": 2620, "unit": "nM"}, {"measurement": "GI50", "setting": "[31]", "result": 223, "unit": "nM"}, {"measurement": "LC50 (concentration killing 50% of cells)", "setting": "[31]", "result": 1460, "unit": "nM"}, {"measurement": "TGI", "setting": "[31]", "result": 513, "unit": "nM"}, {"measurement": "GI50", "setting": "[32]", "result": 214, "unit": "nM"}, {"measurement": "GI50", "setting": "[33]", "result": 171, "unit": "nM"}, {"measurement": "TGI", "setting": "[33]", "result": 332, "unit": "nM"}, {"measurement": "GI50", "setting": "[34]", "result": 220, "unit": "nM"}, {"measurement": "growth at 1 µM", "setting": "[35]", "result": -28, "unit": "%"}, {"measurement": "growth at 1 µM", "setting": "[36]", "result": 12, "unit": "%"}, {"measurement": "growth at 1 µM", "setting": "[37]", "result": -34, "unit": "%"}, {"measurement": "growth at 0.1 µM", "setting": "[38]", "result": 96, "unit": "%"}]}
